# In patent US20080287531A1, “Preventive and/or Therapeutic Agent for Sleeping Disorder” (Kyowa Hakko Co., Ltd., priority 2004, published 2008):
# Values joined by “and” are separate entries in the source; they are usually repeats but may differ in a detail not shown here. Equal entries are not always repeated. “Also recorded” adds a separate entry of the source. Structures can show the parent of a compound that is named as a salt.
# Tests used:
# [1] = test system: nasal congestion of allergic rhinitis; conditions: Phase III test, Non-patent Document 7; cited from earlier work
# [2] = test system: nasal congestion reaction; conditions: guinea pigs, experimental allergic rhinitis model, Non-patent Document 8; cited from earlier work
# [3] = test system: patients with sleep apnea syndrome / sleeping disorder; assay: Polysonography (PSG) before and after administration of olopatadine hydrochloride; assay type: in vivo, human; conditions: for AI After therapy: apnea index by PSG; for AHI After therapy: apnea-hypopnea index by PSG; for Arousals Index After therapy: arousals index per hour by PSG
# Method: (§1) Olopatadine hydrochloride was orally administered at a dose of 10 mg/day [a 5-mg tablet of Allelock (registered trademark: Kyowa Hakko Kogyo Co., Ltd.) was administered everyday, twice a day, with one tablet for each administration] to three patients (patient Nos. 1 to 3) with sleep apnea syndrome complicated by allergic rhinitis and seven patients (patient Nos. 4 to 10) with sleeping disorder which is not complicated by allergic rhinitis including four patients (patient Nos. 4 to 6 and 8) with sleep apnea syndrome which is not complicated by allergic rhinitis. Before and after the administration of olopatadine hydrochloride, an apnea-hypopnea index (AHI), an apnea index (AI) and an arousals index per hour were measured respectively by polysonography (PSG) for each patient. Further, before and after the administration of olopatadine hydrochloride, a test for daytime Epworth sleepness scale was performed according to the following.
# The presence or absence of allergic rhinitis was confirmed by performing RAST (radioallergosorbent test) for 12 types of antigens [house dust, Dermatophagoides pteronyssinus, Japanese cedar, Hinoki cypress, Japanese alder, ragweed, mugwort, goldenrod, Cocksfoot (Dactylis glomerata), Candida albicans, mold and animal epithelium].
# The patients uncomplicated by allergic rhinitis had airway obstruction caused by non-atopic rhinitis.
# [4] = test system: patients with sleep apnea syndrome / sleeping disorder; assay: Daytime Epworth sleepness scale (ESS) test; assay type: in vivo, human; conditions: total of 8 conditions, 10 points or less is normal, oral 10 mg/day
# Method: as §1
# In the following conditions 1 to 8, sleepiness was determined according to the next four levels, and seriousness of daytime sleepiness was evaluated by the total (ESS) of the points. A case in which ESS is 10 points or less is evaluated as normal.
# 2 points=sometimes sleeps
# 1. when sitting and reading a book
# 2. when watching television
# 3. when sitting in a public place without movement (for example, in a theater or a conference room) […]
# [5] = test system: patients with sleep apnea syndrome / sleeping disorder; assay: Estimation of effect on chief-complaint symptoms (snore, apnea, daytime sleepiness); assay type: in vivo, human; conditions: for Estimation of effect: oral 10 mg/day
# Method: as §1
# The effect of the agent was estimated according to the following standard.
# Incidentally, as objective assessment, improved conditions in values of AHI, AI, arousals index and ESS were used for reference.
# [6] = oral 10 mg/day, 74-160 days, one line per patient (Nos. 4-10), sleeping disorder not complicated by allergic rhinitis
# [7] = oral 10 mg/day, 160-342 days, one line per patient (Nos. 1-3), sleep apnea syndrome complicated by allergic rhinitis
SMILES,Effect on nasal congestion of allergic rhinitis [1],Action on nasal congestion reaction [2],"AI After therapy [3, 6]","AI After therapy [3, 7]","AHI After therapy ([3]; oral 10 mg/day (5-mg tablet twice a day), 160-342 days, one line per patient (Nos. 1-3), sleep apnea syndrome complicated by allergic rhinitis)","AHI After therapy [3, 6]","Arousals Index After therapy [3, 6]","Arousals Index After therapy [3, 7]","ESS After therapy ([4]; 74-160 days, one line per patient (Nos. 4-10), not complicated by allergic rhinitis)","ESS After therapy ([4]; 160-342 days, one line per patient (Nos. 1-3), complicated by allergic rhinitis)","Estimation of effect ([5]; 74-160 days, one line per patient (Nos. 4-10), sleeping disorder not complicated by allergic rhinitis)","Estimation of effect ([5]; 160-342 days, one line per patient (Nos. 1-3), sleep apnea syndrome complicated by allergic rhinitis)","Clinical effect on symptoms of sleeping disorder ([5]; patients with sleep apnea syndrome complicated by allergic rhinitis, snore, apnea, hypopnea, arousals, daytime sleepiness)","Clinical effect on symptoms of sleeping disorder ([5]; patients with sleeping disorder not complicated by allergic rhinitis, snore, apnea, hypopnea, arousals, daytime sleepiness, morning headache)",Clinical effect on symptoms of sleeping disorder ([5]; regardless of the presence or absence of complication by allergic rhinitis)
"CN(C)CC/C=C1/c2ccccc2COc2ccc(CC(=O)O)cc21 [compound 1, (Z)-11-(3-dimethylaminopropylidene)-6,11-dihydrodibenzo[b,e]oxepine-2-acetic acid]",highly improve the nasal congestion of allergic rhinitis,inhibitory action on a nasal congestion reaction,–,–,–,–,–,–,–,–,–,–,–,–,–
CN(C)CC/C=C1/c2ccccc2COc2ccc(CC(=O)O)cc21 [olopatadine hydrochloride],–,–,3.4 and 1.2 and 3.1 and 0.8 (2×) and 0.4 and 2.8,4.3 and 1.5 and 7.6,5.8 and 2.7 and 11.1,4.2 and 2.6 and 4.5 and 1.3 and 0.9 and 1.8 and 3.4,5.9 and 2.6 and 5.3 and 2.3 and 1.8 and 2.1 and 4.9,10.3 and 4.4 and 18.9,11 points and 10 points (2×) and 8 points and 9 points (2×) and 12 points,12 points and 11 points and 9 points,Improved; also recorded: Markedly,Improved; also recorded: Markedly,improves symptoms of sleeping disorder,improves symptoms of sleeping disorder,improves symptoms of sleeping disorder
